Measurements as given in article PMC12117998, “First Steps toward the Design of Peptides that Influence the Intracellular Palmitoylation Machinery” (Chembiochem, 2025).
No end group written: not given here.

Tests used:
MDA‐MB‐231 = assay: Cell viability assay (resazurin); type: cell-based; settings: MDA‐MB‐231, 24 h, CF‐labeled peptides, n = 3 (Figure 3B)
Description: (§1) HeLa (13,000), MDA‐MB‐231 (26,000), HFF‐1 (16,000) cells, mEGFP‐HRas (18,000), and SW480 and SW620 (15,000) were seeded into a 96‐well plate. Cells were treated with suitable peptide concentrations diluted in the corresponding serum‐free culture medium. After 24 h incubation under standard growth conditions, the cells were washed once with PBS. The positive control was treated for 10 min with 70% EtOH. To test the viability, cells were treated with a resazurin solution (In Vitro Toxicology Assay Kit, resazurin based, Sigma) and incubated for a further 1–2 h. The product resorufin was measured at 595 nm (λex = 550 nm) on an infinite M200 plate reader (Tecan) and normalized to the untreated negative control cells.

HeLa cells = assay: Cell viability assay (resazurin); type: cell-based; settings: 24 h, CF‐labeled peptides, n = 3 (Figure 3A)
Description: as §1

HeLa mEGFP‐HRas cells = assay: Cell viability assay (resazurin); type: cell-based; settings: 24 h, n = 3 (Figure S11A)
Description: as §1

[1] = test system: EGFR signaling in SW620 cells; assay: EGFR‐related signaling cascade (immunoblot); type: cell-based, human; settings: SW620 (low EGFR expression), serum‐starved, 15 μM DC‐2 for 6 h, ± 200 ng ml^−1 EGF 15 min, n = 3
Description: (§2) SW480 and SW620 cells (1,200,000) were seeded into a 6‐well plate. The next day, cells were once washed with PBS and starved for 18 h with DMEM + 0.2% BSA. Next, 15 μM DC‐2 diluted in DMEM + 0.2% BSA was incubated with the cells for 6 h. Control wells were only treated with the starvation medium. Afterward, all wells were washed once with PBS and 200 ng ml^−1 EGF diluted in DMEM + 0.2% BSA was added for 15 min. Cells were again washed once with PBS and ice‐cold lysis buffer (25 mM Tris, 150 mM NaCl,1 mM TCEP, 2 mM EDTA, 1% Triton‐X‐100, pH 7.4) supplemented with Halt Protease and Phosphatase Inhibitor Cocktail (Thermo Fisher) was added to scrape the cells from the well. Lysates were incubated on ice for 30 min slightly shaking. After centrifugation for 30 min at 14,000 rpm at 4 °C, lysates were mixed with 4X SDS‐PAGE loading buffer (200 mM Tris‐HCl pH 6.8, 400 mM dithiothreitol, 8% SDS, 0.4% bromophenol blue, and 40% glycerol) and heated at 95 °C for 5 min. Protein samples were analyzed by SDS‐PAGE and immunoblotting. The following antibodies were used: anti‐EGFR (Cell Signaling Technology (CST) Cat#4267), anti‐pEGFR (CST Cat #3777), anti‐AKT (CST Cat#9272); anti‐pAKT (CST Cat#4060); anti‐ERK1/2 (CST Cat#4695); anti‐pERK1/2 (CST Cat#4370); anti‐β‐actin‐horseradish peroxidase (HRP) (Santa Cruz Biotechnology Cat# sc‐47778 HRP); or anti‐rabbit‐HRP conjugate (CST Cat#7074S). Images were cropped, processed, and quantified using the ImageLab software (BioRad).

[2] = test system: EGFR signaling in SW480 cells; assay: EGFR‐related signaling cascade (immunoblot); type: cell-based, human; settings: SW480, serum‐starved, 15 μM DC‐2 for 6 h
Description: as §2

MCF‐10 A breast spheroid = assay: Confocal time‐lapse imaging of spheroids; type: cell-based, human; settings: 10‐day‐old MCF‐10 A spheroids, 10 μM CF‐labeled peptide, imaged every 45 s for 20 min, n ≥ 2 (Figure 7)
Description: Spheroids from single MCF10‐A cells were generated for 10 days as described in ref. [66]. For further analyses, spheroids were isolated from EHS matrix through incubation in 2 mL ice‐cold cell recovery solution (BD Biosciences) for 30 min (4 °C). Next, spheroids were washed with fresh EGF‐free medium and individually picked under a stereo microscope for seeding onto 35 mm cell culture dishes with microscopic glass bottoms (Cover Slip, 24 × 24 mm, #1.5 HP, Menzel‐Gläser). Spheroids adhered to glass substrates for 15 min (RT) and were subsequently covered with 0.9 mL fresh EGF‐free growth medium.
Live‐cell imaging was performed at 37 °C and 5% CO2 (cell incubator XL, Zeiss, Germany) with an inverse confocal laser scanning microscope (LSM880 with Airyscan detector) that used a 40x LD C‐Apochromat water immersion objective (NA 1.1, Zeiss). Before addition of peptides, control images were taken. Subsequently, peptide was added to a final concentration of 10 μM and spheroids immediately imaged every 45 s for 20 min. The observed plane was at the equatorial plane of a spheroid, where the diameter was largest. Images were taken with Fast Airyscan and subsequent processing using the ZEN 2.3 black software (Zeiss). Z‐stacks were taken right after the time series in 1 μm steps with the same microscopic settings.

HFF‐1 cells = assay: Cell viability assay (resazurin); type: cell-based, human; settings: HFF‐1, 24 h, CF‐labeled peptides, n = 3 (Figure 3C)
Description: as §1

Substance: GLRKRLRKFRNKKMDHHCPW-NH2 [DC‐2, CPP sC18* fused to the DHHC motif derived from ZDHHC2/3/6/7/15/16/20]
- cytotoxicity (cell viability) (MDA‐MB‐231): most active peptide
- cytotoxicity (cell viability) (HeLa cells): most active peptide
- cytotoxicity at 100 μM (HeLa mEGFP‐HRas cells): did not harm the cells
- effects on EGFR signaling [1]: no effects
- ERK and AKT phosphorylation, peptide only vs untreated ([2]; n = 3 (Figure 8B)): slight increase in ERK and AKT phosphorylation
- EGFR and ERK phosphorylation, peptide and EGF vs EGF only ([2]; then 200 ng ml^−1 EGF 15 min, n = 3 (Figure 8B,C)): increase in EGFR and ERK phosphorylation
- infiltration of basement membrane (BM)‐covered spheroids (MCF‐10 A breast spheroid): efficiently surpassed the BM and translocated into many cells
- cytotoxicity (cell viability) (HFF‐1 cells): most active peptide
